In ChEMBL document CHEMBL3045852, “Synthesis of limonoid CDE fragments related to limonin and nimbinim” (2010) one finds AFI data, which are given here for two molecules.

The experiment relates to Spodoptera littoralis. As to the kind of experiment: Antifeedant activity against Spodoptera littoralis. The format is functional.

Structures are written as SMILES.

In the case of `CC1(C)CC(=O)C[C@@]2(C)[C@H](c3ccsc3)C(=O)[C@H]3O[C@@]312`, the AFI stood at 24%.

`CC1(C)CC(=O)C[C@@]2(C)[C@H](c3ccoc3)C(=O)[C@H]3O[C@@]312` (relative stereo): the AFI is 45%.
